Tests used:
Format in all cases: physicochemical
[1] = Dye solubility in methyl ethyl ketone/toluene; design: key: A (easily soluble); B (soluble); C (difficult to dissolve, but soluble); details: solvent methyl ethyl ketone/toluene (1/1, w/w), ranked in three
Text: The dye solubility of each compound in the solvent of methyl ethyl ketone/toluene (1/1, w/w) was ranked in three, A (easily soluble), B (soluble), C (difficult to dissolve, but soluble).

[2] = Light fastness of thermal transfer recorded image (Xe light exposure); details: Xe light (17000 lux) for 7 days; retention of status A reflection density 1.0; image from thermal transfer ink sheet
Text: (§1) The thermal transfer recording ink sheet produced in Example 201 and the image-receiving material constructed as above were combined in such a manner that the dye-donating layer could face the image-receiving layer, and this was printed using a thermal head applied to the back of the dye-donating material. The output power of the thermal head was 0.25 W/dot, pulse width was from 0.15 to 15 msec, the dot density was 6 dots/mm. In that manner, the magenta dye was imagewise fixed on the image-receiving layer of the image-receiving material, and as a result, a sharp image print with no transfer unevenness was obtained.
(§2) The thermal transfer recording ink sheets produced in Example 202 to 204 and produced in Comparative Example 201 to 203 were used in place of the thermal transfer recording ink sheet produced in Example 201, tested for image recording.
Next, the thermal transfer image-receiving material that had been recorded by the thermal transfer were exposed to a Xe light (17000 lux) for 7 days, and tested for the light stability (light fastness) of the recorded images. After the exposure, the status A reflection density of the part of each sample having an original status A reflection density of 1.0 before the exposure was measured, and the retention (by percentage) to the reflection density of 1.0 after exposure to that before exposure indicates the image stability. With the retention percentage, the samples were ranked in three, A (from 90% to less than 100%), B (from 80% to less than 90%), C (less than 80%).

[3] = Wet heat fastness of thermal transfer recorded image (80° C., 70% RH, dark); details: 80° C. and 70% RH in a dark place for 7 days; retention of Status A reflection density 1.0; image from thermal transfer ink sheet
Text: as §1, §2
Further, the thermal transfer image-receiving material that had been recorded by the thermal transfer in the same manner as above were stored under the condition of 80° C. and 70% RH in a dark place for 7 days, and checked for the wet heat stability (wet heat fastness) of the image. After exposure to light, the Status A reflection density of the area having an initial Status A reflection density of 1.0 was measured; and the density retentiveness (percentage) relative to the original reflection density 1.0 before exposure to light was computed. Based on the computed data, the samples were evaluated with regard to the stability into three ranks, A (from 90% to less than 100%), B (from 80% to less than 90%), and C (less than 80%).

[4] = Evaluation of maximum absorption wavelength (absorption spectrometry in ethyl acetate solution); details: concentration 1×10^−6 mol/L, optical path length 10 mm
Procedure: <Evaluation of Maximum Absorption Wavelength>
The thus-obtained arylidene-pyrazolone dyes of Examples 101 to 105 were analyzed absorption spectrometry in an ethyl acetate solution (concentration: 1×10^−6 mol/L, optical path length: 10 mm).

| Solubility [1] | Light Fastness [2] | Wet Heat Fastness [3] | Maximum Absorption Wavelength [4] [nm] | Compound |
| --- | --- | --- | --- | --- |
| A | A (A (from 90% to less than 100%)) | A (A (from 90% to less than 100%)) | 468 | CCOC1=NN(S(C)(=O)=O)C(=O)/C1=C\c1ccc(N(CC)CC)cc1 [Compound Y-1] |
| A | A (A (from 90% to less than 100%)) | A (A (from 90% to less than 100%)) | 462 | CCOC1=NN(S(=O)(=O)N(C)C)C(=O)/C1=C\c1ccc(N(CC)CC)cc1 [Compound Y-8] |

Continued, compound first:

| Compound | Solubility [1] | Light Fastness [2] | Wet Heat Fastness [3] | Maximum Absorption Wavelength [4] [nm] |
| --- | --- | --- | --- | --- |
| CCOC1=NN(c2ccccc2)C(=O)/C1=C\c1ccc(N(CC)CC)cc1 [Comparative Dye 2] | B | A (A (from 90% to less than 100%)) | C (C (less than 80%)) | – |
| CCOC1=NN(C)C(=O)/C1=C\c1ccc(N(CC)CC)cc1 [Comparative Dye 3] | A | B (B (from 80% to less than 90%)) | C (C (less than 80%)) | – |
| C.I.Disperse Yellow 201 [Comparative Dye 1] | A | A (A (from 90% to less than 100%)) | C (C (less than 80%)) | – |
